Measured values: PMC9658835, “Acetophenone-Based 3,4-Dihydropyrimidine-2(1H)-Thione as Potential Inhibitor of Tyrosinase and Ribonucleotide Reductase: Facile Synthesis, Crystal Structure, In-Vitro and In-Silico Investigations” (International Journal of Molecular Sciences, 2022)

Target: mushroom tyrosinase
Experiment: mushroom tyrosinase (Sigma) enzyme inhibition assay
Type: biochemical

- IC50: 1.98 µM
Compound: CC(=O)c1ccc(N2C(=S)NC(C)(C)C=C2C)cc1 [compound 4, 1-(4-(4,4,6-trimethyl-2-thioxo-3,4-dihydropyrimidin-1(2H)-yl)phenyl)ethan-1-one]
